Source: ChEMBL document CHEMBL5579801, “Novel orexin receptor agonists based on arene- or pyridine-fused 1,3-dihydro-2H-imidazole-2-imines” (Bioorg Med Chem Lett, 2024)
Values belong to the molecule of their own block, whether it stands above or below them.

What was measured:
HEK293 = test: Cytotoxicity against human HEK293 cells upto 100 uM incubated for 3 days; assay type: toxicity, cell-based; settings: hek293, 72 h, time 3 day
[1] = Tmax in mouse plasma at 5 mg/kg,iv administration; assay type: ADME, organism-based
[2] = AUClast in mouse brain at 5 mg/kg,iv administration; assay type: ADME, organism-based; settings: in vivo
[3] = Ratio of Cmax in mouse brain to plasma at 5 mg/kg,iv administration; assay type: ADME, organism-based
[4] = Tmax in mouse brain at 5 mg/kg,iv administration; assay type: ADME, organism-based
Orexin receptor type 2 = biological target: T1, Orexin receptor type 2 (Homo sapiens, UniProt O43614); test: Agonist activity at human OX2R expressed in human HEK293 cells co-transfected with human Galphaq assessed as accumulation of inositol phosphate by scintillation counter analysis
T1 sequence (O43614 whole entry): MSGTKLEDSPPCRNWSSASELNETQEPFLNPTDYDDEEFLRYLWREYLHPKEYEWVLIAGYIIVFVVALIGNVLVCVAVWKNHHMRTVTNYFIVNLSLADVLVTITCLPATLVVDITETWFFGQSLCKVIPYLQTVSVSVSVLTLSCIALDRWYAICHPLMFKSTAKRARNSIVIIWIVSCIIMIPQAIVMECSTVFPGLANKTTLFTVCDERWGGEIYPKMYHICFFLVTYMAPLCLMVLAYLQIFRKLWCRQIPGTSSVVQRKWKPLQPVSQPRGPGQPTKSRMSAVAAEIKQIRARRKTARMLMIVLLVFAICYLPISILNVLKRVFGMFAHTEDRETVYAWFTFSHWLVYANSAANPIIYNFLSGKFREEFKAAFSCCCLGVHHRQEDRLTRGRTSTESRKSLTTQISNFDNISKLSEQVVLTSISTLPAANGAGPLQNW

[5] = Half life in mouse brain at 5 mg/kg,iv administration; assay type: ADME, organism-based
[6] = Half life in mouse plasma at 5 mg/kg,iv administration; assay type: ADME, organism-based
[7] = Ratio of AUC in mouse brain to plasma at 5 mg/kg,iv administration; assay type: ADME, organism-based; settings: read-out: Ratio AUC
[8] = AUClast in mouse plasma at 5 mg/kg,iv administration; assay type: ADME, organism-based
[9] = Cmax in mouse plasma at 5 mg/kg,iv administration; assay type: ADME, organism-based
[10] = Cmax in mouse brain at 5 mg/kg,iv administration; assay type: ADME, organism-based

Structure (SMILES): Cc1ccc(CC(CNC(=O)C2CC2)n2c(=N)n(Cc3ccc(C)cc3)c3ccccc32)cc1 (racemic)
EC50 (Orexin receptor type 2): 5.25 µM

Structure (SMILES): Cc1ccc(CC(CNC(=O)N(C)C)n2c(=N)n(Cc3ccc(C)cc3)c3ccccc32)cc1 (racemic)
EC50 (Orexin receptor type 2): 4.17 µM

Structure (SMILES): Cc1ccc(C[C@@H](CO)n2c(=N)n(Cc3ccc(C)cc3)c3cc(Cl)ccc32)cc1
EC50 (Orexin receptor type 2): > 10 µM

Structure (SMILES): Cc1ccc(C[C@@H](CNC(=O)c2cccc(C)n2)n2c(=N)n(Cc3ccc(C)cc3)c3ccccc32)cc1
EC50 (Orexin receptor type 2): > 10 µM

Structure (SMILES): Cc1ccc(CC(CNC(=O)Cc2ccncc2)n2c(=N)n(Cc3ccc(C)cc3)c3ccccc32)cc1 (racemic)
EC50 (Orexin receptor type 2): > 10 µM

Structure (SMILES): Cc1ccc(CC(CNC(=O)Cc2ccccc2)n2c(=N)n(Cc3ccc(C)cc3)c3ccccc32)cc1 (racemic)
EC50 (Orexin receptor type 2): > 10 µM

Structure (SMILES): Cc1ccc(CC(CNS(=O)(=O)C(F)(F)F)n2c(=N)n(Cc3ccc(C)cc3)c3ccccc32)cc1 (racemic)
EC50 (Orexin receptor type 2): > 10 µM

Structure (SMILES): Cc1ccc(CC(CNC(=O)CN(C)C)n2c(=N)n(Cc3ccc(C)cc3)c3ccccc32)cc1 (racemic)
EC50 (Orexin receptor type 2): 3.31 µM

Structure (SMILES): Cc1ccc(C[C@@H](CNC(=O)c2ncccc2C)n2c(=N)n(Cc3ccc(C)cc3)c3ccccc32)cc1
EC50 (Orexin receptor type 2): > 10 µM

Structure (SMILES): CCSC[C@H](Cc1ccc(C)cc1)n1c(=N)n(Cc2ccc(C)cc2)c2ccccc21
EC50 (Orexin receptor type 2): 3.98 µM

Structure (SMILES): Cc1ccc(CC(CNC(=O)CN)n2c(=N)n(Cc3ccc(C)cc3)c3ccccc32)cc1 (racemic)
EC50 (Orexin receptor type 2): > 10 µM

Structure (SMILES): Cc1ccc(CC(CNC(=O)c2ccccc2)n2c(=N)n(Cc3ccc(C)cc3)c3ccccc32)cc1 (racemic)
EC50 (Orexin receptor type 2): > 10 µM

Structure (SMILES): Cc1ccc(CC(CNC(=O)Cc2cccnc2)n2c(=N)n(Cc3ccc(C)cc3)c3ccccc32)cc1 (racemic)
EC50 (Orexin receptor type 2): 4.68 µM

Structure (SMILES): Cc1ccc(C[C@@H](CNS(=O)(=O)C(F)F)n2c(=N)n(Cc3ccc(C)cc3)c3ccccc32)cc1
EC50 (Orexin receptor type 2): 6.46 µM

Structure (SMILES): CCOC(=O)NCC(Cc1ccc(C)cc1)n1c(=N)n(Cc2ccc(C)cc2)c2ccccc21 (racemic)
EC50 (Orexin receptor type 2): 2.69 µM

Structure (SMILES): Cc1ccc(C[C@@H](CNC(=O)c2ccco2)n2c(=N)n(Cc3ccc(C)cc3)c3ccccc32)cc1
EC50 (Orexin receptor type 2): > 10 µM

Structure (SMILES): Cc1ccc(CC(CNC(=O)CCCO)n2c(=N)n(Cc3ccc(C)cc3)c3ccccc32)cc1 (racemic)
EC50 (Orexin receptor type 2): > 10 µM

Structure (SMILES): CCC(=O)NCC(Cc1ccc(C)cc1)n1c(=N)n(Cc2ccc(C)cc2)c2ccccc21 (racemic)
EC50 (Orexin receptor type 2): 8.13 µM

Structure (SMILES): Cc1ccc(C[C@@H](CNC(=O)CC(F)(F)F)n2c(=N)n(Cc3ccc(C)cc3)c3ccccc32)cc1
EC50 (Orexin receptor type 2): 6.46 µM

Structure (SMILES): Cc1ccc(CC(CNC(=O)Cc2ncccn2)n2c(=N)n(Cc3ccc(C)cc3)c3ccccc32)cc1 (racemic)
EC50 (Orexin receptor type 2): > 10 µM

Structure (SMILES): Cc1ccc(C[C@@H](CO)n2c(=N)n(Cc3ccc(C)cc3)c3ccc(C)cc32)cc1
EC50 (Orexin receptor type 2): > 10 µM

Structure (SMILES): Cc1ccc(CC(CNC=O)n2c(=N)n(Cc3ccc(C)cc3)c3ccccc32)cc1 (racemic)
EC50 (Orexin receptor type 2): 2.45 µM

Structure (SMILES): Cc1ccc(CC(CNC(=O)C(F)(F)F)n2c(=N)n(Cc3ccc(C)cc3)c3ccccc32)cc1 (racemic)
EC50 (Orexin receptor type 2): 6.61 µM

Structure (SMILES): Cc1ccc(C[C@@H](CO)n2c(=N)n(Cc3ccc(C)cc3)c3ccc(C(F)(F)F)cc32)cc1
EC50 (Orexin receptor type 2): > 10 µM

Further lines, with some results ahead:

Tmax [1]: 10 min | AUClast [2]: 11291 ng·min/g | Kp [3]: 0.026 | Tmax [4]: 30 min | EC50 (Orexin receptor type 2): 0.437 µM | half-life [5]: 729 min | half-life [6]: 230 min | Kp [7]: 0.27 | AUC(0-t) [8]: 691 ng·h/mL | Cmax [9]: 600 ng/mL | Cmax [10]: 15.3 ng/g
Structure (SMILES): Cc1ccc(C[C@@H](CNC(=O)CO)n2c(=N)n(C(C)c3ccc(C)cc3)c3ccccc32)cc1 (stereo in doubt; 65c)
Activity (HEK293): Non-Toxic

EC50 (Orexin receptor type 2): > 10 µM
Structure (SMILES): COC[C@H](Cc1ccc(C)cc1)n1c(=N)n(C(c2ccc(C)cc2)C2CCC2)c2ccccc21 (mixture of isomers)

EC50 (Orexin receptor type 2): 1.95 µM
Structure (SMILES): Cc1ccc(C[C@@H](CNC(=O)CO)n2c(=N)n(C(c3ccc(C)cc3)C(C)C)c3ccccc32)cc1 (mixture of isomers)

EC50 (Orexin receptor type 2): 0.372 µM
Structure (SMILES): Cc1ccc(C[C@@H](COCCC#N)n2c(=N)n(C(C)c3ccc(C)cc3)c3cccnc32)cc1 (stereo in doubt; 69c)

EC50 (Orexin receptor type 2): 0.339 µM
Structure (SMILES): COCCOC[C@H](Cc1ccc(C)cc1)n1c(=N)n(C(C)c2ccc(C)cc2)c2cccnc21 (stereo in doubt; 63c)

EC50 (Orexin receptor type 2): > 10 µM
Structure (SMILES): Cc1ccc(C[C@@H](CNC(=O)CO)n2c(=N)n(C(C)c3ccc(C)cc3)c3cccnc32)cc1 (stereo in doubt; 68b)

EC50 (Orexin receptor type 2): 1.95 µM
Structure (SMILES): COC[C@H](Cc1ccc(C)cc1)n1c(=N)n(C(c2ccc(C)cc2)C2CC2)c2ccccc21 (stereo in doubt; 61c)

EC50 (Orexin receptor type 2): 2.34 µM
Structure (SMILES): CSC[C@H](Cc1ccc(C)cc1)n1c(=N)n(Cc2ccc(C)cc2)c2ccccc21

EC50 (Orexin receptor type 2): 3.98 µM
Structure (SMILES): Cc1ccc(C[C@@H](COCCN(C)C)n2c(=N)n(Cc3ccc(C)cc3)c3ccccc32)cc1

EC50 (Orexin receptor type 2): > 10 µM
Structure (SMILES): Cc1ccc(C[C@@H](C(=O)N2CC3(CNC3)C2)n2c(=N)n(C(C)c3ccc(C)cc3)c3ccccc32)cc1 (mixture of isomers)

Tmax [1]: 10 min | AUClast [2]: 100501 ng·min/g | Kp [3]: 3.32 | Tmax [4]: 10 min | EC50 (Orexin receptor type 2): 0.933 µM | half-life [5]: 34 min | half-life [6]: 48 min | Kp [7]: 2.49 | AUC(0-t) [8]: 673 ng·h/mL | Cmax [9]: 741 ng/mL | Cmax [10]: 2460 ng/g
Structure (SMILES): COCOC[C@H](Cc1ccc(C)cc1)n1c(=N)n(C(C)c2ccc(C)cc2)c2cccnc21 (stereo in doubt; 62c)
Activity (HEK293): Non-Toxic

EC50 (Orexin receptor type 2): 4.68 µM
Structure (SMILES): COCCOC[C@H](Cc1ccc(C)cc1)n1c(=N)n(C(C)c2ccc(C)cc2)c2cccnc21 (stereo in doubt; 63b)

EC50 (Orexin receptor type 2): 5.62 µM
Structure (SMILES): Cc1ccc(C[C@@H](COCCC#N)n2c(=N)n(C(C)c3ccc(C)cc3)c3cccnc32)cc1 (stereo in doubt; 69b)

EC50 (Orexin receptor type 2): 7.08 µM
Structure (SMILES): Cc1ccc(C[C@@H](C[S+](C)[O-])n2c(=N)n(Cc3ccc(C)cc3)c3ccccc32)cc1 (some centres not stated)

Tmax [1]: 10 min | AUClast [2]: 8586 ng·min/g | Kp [3]: 0.24 | Tmax [4]: 10 min | EC50 (Orexin receptor type 2): 0.661 µM | half-life [5]: 234 min | half-life [6]: 185 min | Kp [7]: 0.48 | AUC(0-t) [8]: 295 ng·h/mL | Cmax [9]: 225 ng/mL | Cmax [10]: 53.2 ng/g
Structure (SMILES): Cc1ccc(C[C@@H](C(=O)N2CC(C#N)C2)n2c(=N)n(C(C)c3ccc(C)cc3)c3ccccc32)cc1 (mixture of isomers)
Activity (HEK293): Non-Toxic

EC50 (Orexin receptor type 2): 1.32 µM
Structure (SMILES): Cc1ccc(C[C@@H](CNC(=O)CO)n2c(=N)n(C(C)c3ccc(C)cc3)c3cccnc32)cc1 (stereo in doubt; 68c)

EC50 (Orexin receptor type 2): 1.86 µM
Structure (SMILES): COC(=O)NCC(Cc1ccc(C)cc1)n1c(=N)n(Cc2ccc(C)cc2)c2ccccc21 (racemic)

EC50 (Orexin receptor type 2): 0.661 µM
Structure (SMILES): Cc1ccc(C[C@@H](CNC(=O)CO)n2c(=N)n(C(C)c3ccc(C)cc3)c3ccccc32)cc1 (mixture of isomers)

EC50 (Orexin receptor type 2): 5.37 µM
Structure (SMILES): Cc1ccc(C[C@@H](CSC(C)C)n2c(=N)n(Cc3ccc(C)cc3)c3ccccc32)cc1

Tmax [1]: 10 min | AUClast [2]: 38969 ng·min/g | Kp [3]: 0.17 | Tmax [4]: 30 min | EC50 (Orexin receptor type 2): 0.603 µM | half-life [5]: 134 min | half-life [6]: 74 min | Kp [7]: 0.66 | AUC(0-t) [8]: 986 ng·h/mL | Cmax [9]: 841 ng/mL | Cmax [10]: 143 ng/g
Structure (SMILES): COC[C@H](Cc1ccc(C)cc1)n1c(=N)n(C(c2ccc(C)cc2)C2CC2)c2ccccc21 (stereo in doubt; 61b)
Activity (HEK293): Non-Toxic

EC50 (Orexin receptor type 2): 5.75 µM
Structure (SMILES): COCOC[C@H](Cc1ccc(C)cc1)n1c(=N)n(C(C)c2ccc(C)cc2)c2cccnc21 (stereo in doubt; 62b)

EC50 (Orexin receptor type 2): 4.47 µM
Structure (SMILES): Cc1ccc(C[C@@H](CS(C)(=O)=O)n2c(=N)n(Cc3ccc(C)cc3)c3ccccc32)cc1

EC50 (Orexin receptor type 2): 1.41 µM
Structure (SMILES): COC[C@H](Cc1ccc(C)cc1)n1c(=N)n(C(c2ccc(C)cc2)C(F)(F)F)c2ccccc21 (mixture of isomers)

EC50 (Orexin receptor type 2): 3.63 µM
Structure (SMILES): COCCCOC[C@H](Cc1ccc(C)cc1)n1c(=N)n(Cc2ccc(C)cc2)c2ccccc21

EC50 (Orexin receptor type 2): 1.51 µM
Structure (SMILES): Cc1ccc(C[C@@H](CNC(=O)CO)n2c(=N)n(C(C)c3ccc(C)cc3)c3ccccc32)cc1 (stereo in doubt; 65b)

Tmax [1]: 10 min | AUClast [2]: 12554 ng·min/g | Tmax [4]: 10 min | half-life [5]: 47 min | half-life [6]: 40 min | AUC(0-t) [8]: 518 ng·h/mL | Cmax [9]: 651 ng/mL | Cmax [10]: 218 ng/g
Structure (SMILES): Cc1ccc(C[C@@H](C(=O)N2CC(C#N)C2)n2c(=N)n(C(C)c3ccc(C)cc3)c3cccnc32)cc1 (some centres not stated)
Activity (HEK293): Non-Toxic
